Columns and labels:
P24 = P24 production in melittin treated HIV infected cultures; assay type: cell-based
Description: This means, in essence, that the effect of melittin (Seq. ID NO:1) on the virus is to attack the virus before it is released from an infected cell although it is possible that a reduction in virus numbers may be possible during and immediately after the addition of melittin to a cell culture or otherwise. […] At this point in time, melittin is absent from the culture. […] This observation excludes any effect in the experiments to be explained by a direct effect of melittin on "cell free" virus, that is, virus released into the supernatant.
These characteristics appear to be due to the specific structure of the melittin amphiphilic helix. […] In this regard, treatment was at cultivation start, and measurement of infectivity was seven days post treatment. As was discussed earlier, maximum virus concentration in cultures of this type is not achieved for five days after cultivation. As should be understood and the conclusions which the inventors have drawn from same is that if the reduced viral infectivity seven days post treatment were only due to direct effects of melittin on the virus, then in that event, the melittin or an active fragment would have to be present as late as five days post treatment. […] Moreover, and if the reduction and supernatant infectivity was partly due to reduced virus production as opposed to incorrect virus assembly or destruction of newly synthesized virion, then, in that event, this should be reflected by reduced amounts of viral proteins within the cells and/or in their supernatants of the melittin treated cultures. To determine whether this hypothesis is correct the inventors chose the P24 marker as a marker for viral protein production. […] However, following fourteen hours of incubation with melittin, there is a marked reduction of P24 within the cells as well as in the supernatant (down to 60%).

reverse transcriptase = assay: activity of reverse transcriptase in the supernatant of treated, HIV infected cell culture; assay type: cell-based
Description: Referring more particularly to FIGS. 1-4, melittin (Seq. ID NO:1) and its specified analogues were tested for their effect on HIV-infected T-lymphoma cells. In this regard the following cell lines were employed in the testing: KE37-1 (uninfected) and KE37-1/111S (infected with HTLV-111β). These infected cells were incubated for a period of seven days under test conditions at a temperature of 37° C. and in the presence of 5% CO2. A culture medium of RPMI 1640 (GIBCO) was employed and was further supplemented with 10% fetal calf serum which contained approximately 100 units of penicillin, 100μ of streptomycin, and approximately 0.25μ fungizone (Amphotericin B) per milliliter. This equals 1 milliliter of antibiotic-antimycotic solution (GIBCO Catalogue No. 043-05240 per 100 ml. of medium.) After a one week incubation period in the presence of various concentrations of the above-identified substances, which were added fresh daily to the medium, the following tests were carried out with the cultures. A first test was conducted for purposes of determining the relative cell concentration as a function of the number of HIV infected cells present by employing an MTT test. […] The optical density (OD) of the solution was determined at=600 nm. […]

Q: Which results are given for “Gly-Ile-Gly-Ala-Val-Leu-Lys-Val-Leu-Thr-Thr-Gly-Leu-Pro-Ala-Leu-Ile-Ser-Trp-Ile-Lys-Arg-Lys-Arg-Gln-Gln-Amide [melittin]”?
A: cellular vs supernatant P24 reduction (P24): cellular P24 seems to be reduced sooner and more strongly than supernatant P24; P24 within the cells as well as in the supernatant (P24; fourteen hours of incubation, down to, 840 min): 60%; reduction of cellular and supernatant P24 (P24; three hours of incubation): only a slight reduction; virus protein synthesis (P24 formation within the cell) (P24; totally infected (clone) cultures): virus protein synthesis is reduced; activity of reverse transcriptase (RT%) (reverse transcriptase; 2.5 μg per ml, FIG. 2): revert substantially back to zero; activity of reverse transcriptase, in words (reverse transcriptase; subtoxic concentrations): inhibition of reverse transcriptase

Source: patent US5770688A, “Method and composition for the treatment of mammalian HIV infection” (GSF-Forschungszentrum fur Umwelt und Gesundheit GmbH, priority 1989, dated 1998)
